The results in this text go back to the Kinase Knowledgebase extract (Sharma et al. 2016).

What is called IC50 is the concentration that inhibits the measured activity by half. The low end stands for higher potency, the high end for lower potency.

The assay addresses EGFR (UniProt P00533).

Values after ≈ are worked out from the molar mass of the structure shown.

Chain of EGFR (P00533 whole entry, looked up): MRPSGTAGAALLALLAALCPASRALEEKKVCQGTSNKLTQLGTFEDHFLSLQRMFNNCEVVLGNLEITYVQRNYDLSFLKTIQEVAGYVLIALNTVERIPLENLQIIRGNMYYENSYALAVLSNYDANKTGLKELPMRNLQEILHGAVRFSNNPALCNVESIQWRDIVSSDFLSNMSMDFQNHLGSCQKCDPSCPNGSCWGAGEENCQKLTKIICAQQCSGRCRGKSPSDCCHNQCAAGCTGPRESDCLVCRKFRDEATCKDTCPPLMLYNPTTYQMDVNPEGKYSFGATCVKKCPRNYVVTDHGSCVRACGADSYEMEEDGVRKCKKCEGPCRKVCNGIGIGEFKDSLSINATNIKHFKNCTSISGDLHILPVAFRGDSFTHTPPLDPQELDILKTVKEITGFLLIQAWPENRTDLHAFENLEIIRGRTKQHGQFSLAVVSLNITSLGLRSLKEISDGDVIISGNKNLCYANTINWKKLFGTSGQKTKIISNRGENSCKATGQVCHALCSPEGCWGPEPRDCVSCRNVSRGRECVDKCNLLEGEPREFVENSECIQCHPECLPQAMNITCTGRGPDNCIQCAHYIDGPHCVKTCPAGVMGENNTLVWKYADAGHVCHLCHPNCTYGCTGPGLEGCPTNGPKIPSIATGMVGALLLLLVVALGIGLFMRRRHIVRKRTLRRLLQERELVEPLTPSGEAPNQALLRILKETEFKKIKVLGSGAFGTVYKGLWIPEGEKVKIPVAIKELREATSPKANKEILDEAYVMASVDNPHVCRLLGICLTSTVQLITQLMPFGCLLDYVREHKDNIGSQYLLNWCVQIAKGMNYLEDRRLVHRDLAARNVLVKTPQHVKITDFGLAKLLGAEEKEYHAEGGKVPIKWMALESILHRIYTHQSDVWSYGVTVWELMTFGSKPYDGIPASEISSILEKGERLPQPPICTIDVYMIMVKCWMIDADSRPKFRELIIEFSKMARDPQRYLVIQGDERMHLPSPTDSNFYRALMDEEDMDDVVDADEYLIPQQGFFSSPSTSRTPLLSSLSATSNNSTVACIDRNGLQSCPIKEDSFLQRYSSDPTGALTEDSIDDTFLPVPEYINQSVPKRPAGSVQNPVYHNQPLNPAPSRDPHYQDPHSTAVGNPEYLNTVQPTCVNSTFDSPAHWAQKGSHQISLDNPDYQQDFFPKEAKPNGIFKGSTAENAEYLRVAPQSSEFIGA

For the molecule `COc1cc(Nc2ncnc(-n3c(NCc4ccc(C)cc4)nc4ccccc43)n2)cc(OC)c1OC`, the IC50 is above 4.5 µg/mL.

Molecule `COc1cc(Nc2ncnc(N(CC(=O)O)c3ccc4c(c3)OCO4)n2)cc(OC)c1OC` gave an IC50 of 0.4 to 2.4 µg/mL (≈ 0.878 to 5.27 µM).

`O=c1[nH]c2ccccc2n1-c1ncnc(Nc2ccc3ccccc3c2)n1` yielded a half-maximal inhibitory concentration (IC50) above 4.5 µg/mL.

`CN(c1cccc(Cl)c1)c1ncnc(Nc2cccc(OC(F)(F)F)c2)n1` came in with an IC50 below 0.4 µg/mL.

Consider `Cc1cccc(Nc2ncnc(N(C)c3cccc(Cl)c3)n2)c1`, for which the IC50 is below 0.4 µg/mL.

As for `Cc1ccc(Cl)cc1Nc1ncnc(Nc2cc(Cl)ccc2C)n1`, the IC50 was below 0.4 µg/mL.

Consider `COc1cc(Nc2ncnc(NC3CCc4ccccc43)n2)cc(OC)c1OC` (centres undefined), for which the IC50 lay within 0.4 to 2.4 µg/mL (≈ 1.02 to 6.1 µM).

In turn, `Cc1ccc2c(c1)CCCN2c1ncnc(NCCN2CCOCC2)n1` gave a half-maximal inhibitory concentration (IC50) above 4.5 µg/mL.

As to `COc1cc(Nc2ncnc(Nc3nc4ccccc4s3)n2)cc(OC)c1OC`, the IC50 was above 4.5 µg/mL.

For `COc1cc(Nc2ncnc(-c3cccnc3NCc3ccc(F)cc3)n2)cc(OC)c1OC`, the IC50 is above 4.5 µg/mL.

In turn, `O=C(O)c1cccc(Nc2ncnc(-n3c(NCc4ccccc4)nc4ccccc43)n2)c1` displayed an IC50 below 0.4 µg/mL.

`COc1cc(Nc2ncnc(-c3cccc(Cl)c3)n2)cc(OC)c1OC` returned an IC50 above 4.5 µg/mL.

In turn, `COc1ccc(Nc2ncnc(Nc3ccc4c(c3)C(=O)N(C)C4=O)n2)cc1OC` registered an IC50 above 4.5 µg/mL.

The molecule `COc1cc(Nc2ncnc(Nc3ccc4[nH]ccc4c3)n2)cc(OC)c1OC` returned an IC50 below 0.4 µg/mL.

Take `COC(=O)c1ccc(-c2cc(Nc3ncnc(NCCc4ccc(OC)cc4)n3)[nH]n2)cc1`: the concentration for half-maximal inhibition (IC50) was above 4.5 µg/mL.

Regarding `COc1ccc(Nc2ncnc(N(C)C3CCCCC3)n2)cc1OC`, the concentration for half-maximal inhibition (IC50) was below 0.4 µg/mL.

`COc1cc(OC)nc(Nc2ncnc(-n3c(=O)[nH]c4ccccc43)n2)n1` yielded an IC50 above 4.5 µg/mL.

In turn, `CN(c1cccc(Cl)c1)c1ncnc(NC2CCN(Cc3ccccc3)CC2)n1` had an IC50 of 0.4 to 2.4 µg/mL (≈ 0.978 to 5.87 µM).

Molecule `COc1cc(Nc2ncnc(Nc3ccc(C(=O)O)cc3)n2)cc(OC)c1OC` came in with a concentration for half-maximal inhibition (IC50) of 0.4 to 2.4 µg/mL (≈ 1.01 to 6.04 µM).

Molecule `COc1cc2ccn(-c3ncnc(Nc4cc(OC)c(OC)c(OC)c4)n3)c2cc1OC` had an IC50 of 3.5 to 4.5 µg/mL (≈ 8 to 10.3 µM).

The molecule `CC(C)Nc1ncccc1-c1ncnc(Nc2cccc(CC(=O)O)c2)n1` registered an IC50 above 4.5 µg/mL.

In turn, `COCCCNc1ncnc(N2CCCc3cc(C)ccc32)n1` registered an IC50 of 3.5 to 4.5 µg/mL (≈ 11.2 to 14.4 µM).

Molecule `COc1cc(Nc2ncnc(Nc3ccccc3C)n2)cc(OC)c1OC` came in with an IC50 of 2.4 to 3.5 µg/mL (≈ 6.53 to 9.53 µM).

`COc1ccc(Nc2ncnc(Nc3ccc4[nH]ccc4c3)n2)cc1OC` displayed a concentration for half-maximal inhibition (IC50) below 0.4 µg/mL.

Take `COC(=O)C(c1ccccc1)c1ncnc(Nc2cc(OC)c(OC)c(OC)c2)n1` (centres undefined): the IC50 was above 4.5 µg/mL.

Turning to `CN(c1ccc(F)c(Cl)c1)c1ncnc(Nc2cccc(Br)c2)n1`, the IC50 is above 4.5 µg/mL.

Turning to `COc1cc(Nc2ncnc(-n3c(Nc4ccc(N(C)C)cc4)nc4ccccc43)n2)cc(OC)c1OC`, the IC50 was above 4.5 µg/mL.

Take `COc1ccc(Nc2ncnc(N(C)c3ccc(C(=O)O)cc3)n2)cc1OC`: the concentration for half-maximal inhibition (IC50) was above 4.5 µg/mL.

`COc1cc(Nc2ncnc(Nc3cc(-c4ccco4)n[nH]3)n2)cc(OC)c1OC` displayed an IC50 below 0.4 µg/mL.

With `CN(c1cccc(Cl)c1)c1ncnc(Nc2cccc(Cn3ccnn3)c2)n1`, the IC50 is below 0.4 µg/mL.

In turn, `COc1cc(Nc2ncnc(-n3c(Nc4ccccc4C(C)C)nc4ccccc43)n2)cc(OC)c1OC` gave an IC50 above 4.5 µg/mL.

Consider `COc1ccc(Nc2ncnc(Nc3cccc(-c4ccnc(C)n4)c3)n2)cc1OC`, for which the half-inhibitory concentration (IC50) was above 4.5 µg/mL.

Regarding `O=c1[nH]c2ccccc2n1-c1ncnc(Nc2ccc(NS(=O)(=O)c3ccc([N+](=O)[O-])cc3)cc2)n1`, the half-inhibitory concentration (IC50) is 0.4 to 2.4 µg/mL (≈ 0.793 to 4.76 µM).

Take `COc1ccc(CNc2ncnc(Nc3cc(OC)c(OC)c(OC)c3)n2)cc1`: the IC50 is above 4.5 µg/mL.

Turning to `Nc1nc2ccccc2n1-c1ncnc(Nc2cccc(-c3cnco3)c2)n1`, the IC50 is 0.4 to 2.4 µg/mL (≈ 1.08 to 6.48 µM).

Consider `COC(=O)c1ccc(-c2cc(Nc3ncnc(Nc4cc(Cl)cc(Cl)c4)n3)[nH]n2)cc1`, for which the IC50 was above 4.5 µg/mL.

Molecule `COc1cc(Nc2ncnc(-c3ccnc(NCCCO)c3)n2)cc(OC)c1OC` registered a 50% inhibitory concentration (IC50) above 4.5 µg/mL.

`N#Cc1cccc(Nc2ncnc(-n3c(=O)[nH]c4ccccc43)n2)c1`: the IC50 was above 4.5 µg/mL.

With `COc1cc(Nc2ncnc(Nc3ccc(N(C)C)cc3)n2)cc(OC)c1OC`, the concentration for half-maximal inhibition (IC50) was 2.4 to 3.5 µg/mL (≈ 6.05 to 8.83 µM).

Molecule `COc1cc(Nc2ncnc(Nc3nc(-c4ccccc4)cs3)n2)cc(OC)c1OC` yielded an IC50 above 4.5 µg/mL.

As for `COc1cc(Nc2ncnc(-n3c(NCc4ccc(C(F)(F)F)cc4)nc4ccccc43)n2)cc(OC)c1OC`, the concentration for half-maximal inhibition (IC50) is above 4.5 µg/mL.

Turning to `NC(=O)c1ccccc1Nc1ncnc(-n2c(N)nc3ccccc32)n1`, the IC50 was above 4.5 µg/mL.

For `NC(=O)c1cccc(Nc2ncnc(Nc3cc(-c4ccco4)n[nH]3)n2)c1`, the IC50 is below 0.4 µg/mL.

`COc1cc(Nc2ncnc(-n3c(NCc4cccc(F)c4)nc4ccccc43)n2)cc(OC)c1OC` displayed an IC50 of 3.5 to 4.5 µg/mL (≈ 6.98 to 8.97 µM).

`CC(C)Nc1ncccc1-c1ncnc(Nc2ccc(C(N)=O)cc2)n1` had a half-maximal inhibitory concentration (IC50) above 4.5 µg/mL.

Consider `CCN(CC)c1ccc(Nc2ncnc(N3CCCc4cc(C)ccc43)n2)cc1`, for which the half-maximal inhibitory concentration (IC50) was above 4.5 µg/mL.

`CCN(CC)CCNc1ncnc(N(C)c2cccc(Cl)c2)n1` came in with an IC50 of 0.4 to 2.4 µg/mL (≈ 1.19 to 7.17 µM).

The molecule `CCN(CC)CCCCNc1cc(-c2ncnc(Nc3cc(OC)c(OC)c(OC)c3)n2)ccn1` showed an IC50 above 4.5 µg/mL.

On to `COc1cc(Nc2ncnc(-n3c(NC(C)C)nc4ccccc43)n2)cc(OC)c1OC`, for which the half-inhibitory concentration (IC50) is above 4.5 µg/mL.

Take `COc1cc(Nc2ncnc(Nc3ccc(Br)cc3F)n2)cc(OC)c1OC`: the IC50 was below 0.4 µg/mL.

In turn, `CCOC(=O)N1CCC(Nc2ncnc(N3CCCc4cc(C)ccc43)n2)CC1` gave an IC50 above 4.5 µg/mL.

`COc1cc(Nc2ncnc(N3CCN(c4ncccn4)CC3)n2)cc(OC)c1OC` returned an IC50 above 4.5 µg/mL.

On to `CN(c1cccc(Cl)c1)c1ncnc(Nc2ccc(S(C)(=O)=O)cc2)n1`, for which the IC50 was below 0.4 µg/mL.

Turning to `NC(=O)c1ccc(Nc2ncnc(-c3cccnc3NCc3ccccc3)n2)cc1`, the IC50 was 0.4 to 2.4 µg/mL (≈ 1.01 to 6.04 µM).

Consider `COc1cc(Nc2ncnc(Nc3cc(-c4ccc(C(=O)NCCc5ccccc5)cc4)n[nH]3)n2)cc(OC)c1OC`, for which the concentration for half-maximal inhibition (IC50) was above 4.5 µg/mL.

`COc1ccc(CNc2nc3ccccc3n2-c2ncnc(Nc3cccc(CC(=O)O)c3)n2)cc1`: the IC50 was above 4.5 µg/mL.

For the molecule `COc1cc(Nc2ncnc(Nc3cccc(Oc4ccccc4)c3)n2)cc(OC)c1OC`, the half-maximal inhibitory concentration (IC50) fell in the range of 0.4 to 2.4 µg/mL (≈ 0.898 to 5.39 µM).

`COc1cc(Nc2ncnc(-c3cccnc3NCc3cccc4ccccc34)n2)cc(OC)c1OC` showed an IC50 above 4.5 µg/mL.

Regarding `Cc1ccc(Nc2ncnc(N)n2)cc1`, the IC50 is above 4.5 µg/mL.

In turn, `COc1ccc(Nc2ncnc(N(C)CCc3ccccn3)n2)cc1OC` displayed an IC50 of 0.4 to 2.4 µg/mL (≈ 1.09 to 6.55 µM).

For the molecule `CCN(CC)CCCNc1ccc(-c2ncnc(Nc3cc(OC)c(OC)c(OC)c3)n2)cn1`, the IC50 is above 4.5 µg/mL.

`COc1cc(Nc2ncnc(-c3cccnc3Nc3ccc4c(c3)CCC4)n2)cc(OC)c1OC` returned an IC50 above 4.5 µg/mL.

`COc1cc(Nc2ncnc(-n3c(Nc4ccc(C(C)C)cc4)nc4ccccc43)n2)cc(OC)c1OC` came in with an IC50 above 4.5 µg/mL.

Regarding `COc1cc(Nc2ncnc(Nc3cccc(C)c3)n2)cc(OC)c1OC`, the IC50 was below 0.4 µg/mL.

Regarding `COC(=O)c1cccc(Nc2ncnc(-n3c(Cl)nc4ccccc43)n2)c1`, the IC50 is 2.4 to 3.5 µg/mL (≈ 6.3 to 9.19 µM).

`COc1cc(Nc2ncnc(-n3c(NCc4ccccc4Cl)nc4ccccc43)n2)cc(OC)c1OC` gave an IC50 above 4.5 µg/mL.

Turning to `COc1ccc(-c2ncnc(Nc3cc(OC)c(OC)c(OC)c3)n2)cc1OC`, the IC50 was in the range of 3.5 to 4.5 µg/mL (≈ 8.78 to 11.3 µM).

The molecule `COc1cc(Nc2ncnc(-n3c(Nc4ccccc4)nc4ccccc43)n2)cc(OC)c1OC` returned an IC50 above 4.5 µg/mL.

`COc1cc(Nc2ncnc(-c3ccc(F)cc3)n2)cc(OC)c1OC` displayed an IC50 above 4.5 µg/mL.

`O=c1[nH]c2ccccc2n1-c1ncnc(Nc2cccc(S(=O)(=O)CCO)c2)n1` showed a 50% inhibitory concentration (IC50) above 4.5 µg/mL.

In turn, `COc1cc(Nc2ncnc(-c3cccnc3NCCCN)n2)cc(OC)c1OC` came in with an IC50 above 4.5 µg/mL.

`Fc1ccc(Nc2ncnc(Nc3ccc4[nH]ncc4c3)n2)cc1Cl` displayed an IC50 below 0.4 µg/mL.

Molecule `COc1cc(Nc2ncnc(-c3cccnc3NC3CCCc4ccccc43)n2)cc(OC)c1OC` (centres undefined) gave an IC50 of 3.5 to 4.5 µg/mL (≈ 7.22 to 9.29 µM).

`c1csc(-c2ncnc(Nc3ccc4c(c3)OCO4)n2)c1` yielded a half-maximal inhibitory concentration (IC50) above 4.5 µg/mL.

Molecule `COc1ccc(Nc2ncnc(-c3cccs3)n2)cc1OC` registered a concentration for half-maximal inhibition (IC50) above 4.5 µg/mL.

As to `COc1cc(Nc2ncnc(-c3ccc(N(C)C)nc3)n2)cc(OC)c1OC`, the IC50 was above 4.5 µg/mL.

Molecule `COc1cc(Nc2ncnc(Nc3cc(OC)c(OC)c(OC)c3)n2)cc(OC)n1` yielded an IC50 of 2.4 to 3.5 µg/mL (≈ 5.79 to 8.45 µM).

Consider `COc1ccc2[nH]cc(CCNc3ncnc(Nc4ccc(OC)c(OC)c4)n3)c2c1`, for which the IC50 was above 4.5 µg/mL.

`CC(C)(C)c1cc(Nc2ncnc(Cl)n2)[nH]n1` came in with an IC50 above 4.5 µg/mL.
